Data taken from patent publication US9109001B2, “3′,5′-cyclic phosphoramidate prodrugs for HCV infection” (priority 2012, dated 2015).
Where two headings read alike, the source gives them in different places.

Legend:
[1] = system: HCV genotype 1b replicon; assay: HCV Replicon Assay; assay type: cell-based
Description: Huh-7-derived cell line (Zluc) that harbors an HCV genotype 1b replicon and a luciferase reporter gene was grown in Dulbecco's Modified Eagle Medium (DMEM) supplemented with 10% fetal bovine serum, 2 mM GlutaMAX, 1% MEM nonessential amino acids, 100 IU/mL penicillin, 100 μg/mL streptomycin, and 0.5 mg/mL Geneticin® (G418). For dose response testing the cells were seeded in 96-well plates at 7.5×10^3 cells per well in a volume of 50 μL, and incubated at 37° C./5% CO2. Drug solutions were made up freshly in Huh-7 media as 2× stocks. Ten additional 5-fold dilutions were prepared from these stocks in DMEM without G418. At least three hours after Zluc cells were seeded, drug treatment was initiated by adding 50 μL of drug dilutions to the plates in duplicate. Final concentrations of drug ranged from 100 μM to […]. Cells were then incubated at 37° C./5% CO2. Alternatively, compounds were tested at two concentrations (1 μM and 10 μM). […] For this, media was removed from the plates via gentle tapping. Fifty microliters of ONE-glo luciferase assay reagent was added to each well. The plates were shaken gently for 3 min at room temperature and luminescence was measured on a Victor^3 V 1420 multilabel counter (Perkin Elmer) with a 1 second read time using a 700 nm cut-off filter. The EC50 values were calculated from dose response curves from the resulting best-fit equations determined by Microsoft Excel and XLfit 4.1 software. When screening at two fixed concentrations, the results were expressed as % inhibition at 1 μM and 10 μM.

[2] = system: Zluc cells; assay: Cytotoxicity evaluation (CellTiter-Blue Cell Viability Assay); assay type: cell-based, human; conditions: read-out: HCV Replicon CC50
[3] = Stability in simulated intestinal fluid; assay type: in vitro ADME; conditions: 100 μM, 2 hours at 37° C.; percent of peak area at time zero
Description: Stability in Simulated Gastric and Intestinal Fluids: Simulated gastric and intestinal fluids containing pepsin and pancreatin respectively were prepared according to the U.S. Pharmacopoeia USP291 procedure (www.pharmacopeia.cn/v29240/usp29nf24s0_ris1s126.html). Test compound (final concentration 100 μM) was incubated in duplicate in the appropriate fluid for 2 hours at 37° C. The samples were quenched with 200 μl cold acetonitrile, vortexed for 30 seconds and then centrifuged at 16,100 g for 10 min. The supernatants were analyzed by HPLC on a C-18 column with UV detection at 252 nm. The time 0 samples were prepared by adding SGF or SIF fluid to the quenching solvent followed by the test compound. Stability of the compound was determined by peak area the test compound after incubation and calculated as percent of the peak area observed at time zero.

[4] = Stability in fresh human whole blood; assay type: in vitro ADME; conditions: 0.5 μM, percent unchanged test compound
Description: (§1) Stability in Fresh Whole Blood: Stability of test compounds were determined in fresh human whole blood with K2EDTA as the anticoagulant (stored refrigerated at 2-8° C. and used within 7 days of receipt). The experiment was conducted with three replicates for each time point. Whole blood, pre-incubated at 37° C. for 10-15 minutes, was fortified with a solution of test compound for a final concentration of 0.5 μM and mixed for 30 sec. At intervals (0, 0.5, 1 and 2 hr), three 50-μL aliquots were combined with 200 μL (each) of an ice-cold solution of the internal standard (carbutamide 500 ng/mL in acetonitrile). The samples were vortexed for 30 sec and then centrifuged at 16,100 g for 5 min. The supernatant was analyzed by LC-MS/MS. The MS peak area ratio of the test compound versus the internal standard was calculated and percent unchanged test compound was calculated for each time point using this ratio.

[5] = Stability in mouse blood; assay type: in vitro ADME; conditions: on ice, percent unchanged test compound
Description: as §1
The stability in mouse blood was determined on ice at 0, 0.5 and 1 hr as above.

[6] = Stability in human liver microsomes; assay type: in vitro ADME; conditions: 10 μM, 1.0 mg/mL protein, NADPH, 60 min; percent unchanged
Description: Stability in Liver and Intestinal Subcellular Fractions: Stability of test compounds were determined in subcellular fractions (microsomes and S9) of human liver and intestine in duplicate for each matrix. Pooled liver and intestinal microsomal, intestinal and liver S9 proteins (1.0 mg/mL), suspended in incubation buffer (100 mM potassium phosphate, pH 7.4, 5 mM MgCl2, and 0.1 mM EDTA), were preincubated for 5 min at 37° C. with 10 μM of a test compound from a 10 mM stock solution in DMSO (final DMSO concentration was 0.1%); the reaction was initiated by the addition of NADPH (3 mM final concentration). At specific times (0 and 60 min), 0.1 mL samples were taken and the reaction terminated by the addition of 4 volumes of stop solution (acetonitrile with 500 ng/mL carbutamide as an internal standard). The samples were vortexed for 30 sec and then centrifuged at 16,000 g for 10 min. 100 μL of supernatants were transferred to 96 deep-well plates preloaded with 100 μL distilled water and analyzed after mixing by LC-MS/MS. The MS peak area ratio of the test compound versus the internal standard was calculated and percent unchanged test compound over 60 minutes was calculated using this ratio.

[7] = system: fresh human hepatocytes; assay: Release of active metabolite in fresh human hepatocytes; assay type: in vitro ADME; conditions: 10 μM
Description: Assay for the Release of Active Metabolite in Primary Hepatocytes: Plates of fresh human and mouse hepatocytes were obtained on ice. The medium was removed and replaced with hepatocyte culture medium (William's E supplemented with penicillin-streptomycin, 1% L-glutamine, 1% insulin-transferrin-selenium and 0.1 μM Dexamethasone (Invitrogen) or with Invitro GRO HI medium complemented with Torpedo antibiotics (Celsis)). Cells were left overnight in an incubator at 37° C. to acclimatize to culture and the medium.
Hepatocyte incubations were conducted at a final volume of 0.5 mL hepatocyte culture medium/well (0.8 million cells/well for human and 0.5 million cells/well for mouse; 12 well plate no overlay, collagen coat). Culture medium from overnight incubation of cells was removed and replaced with fresh medium, pre-warmed to 37° C., containing 10 μM of test compound from a stock solution in DMSO (final DMSO concentration was 0.1%). At each specific time point, incubation medium was removed and cell monolayers were carefully washed two times with ice-cold PBS. Following the last wash, all PBS was carefully removed and 1.0 mL of extraction solution (ice-cold 70% methanol/30% water) added. Cells were scraped off and suspended in the extraction solution, transferred to 2 mL polypropylene microfuge tubes and intracellular contents extracted overnight at −20° C.
After the overnight treatment the cellular extracts were prepared by centrifugation at 16,000×g for 10 min to remove cellular debris. The remaining sample was then dried using a refrigerated centrivap concentrator. Dry extracts were reconstituted in 1000 μL of HPLC-grade water and centrifuged at 16,000×g for 10 min. Aliquots (100 μL each) of the supernatant were transferred into a 96 well plate and internal standard (4 ng/mL final concentration) was added as the internal standard (IS) for LC-MS/MS analysis.
The incubation time points were 6, 24 and 48 hours for human hepatocytes and 1, 4, 8, 12 and 24 hours for mouse hepatocytes.

[8] = system: Huh-7 cells; assay: Release of active metabolite in Huh-7 cells; assay type: in vitro ADME, human; conditions: Table 6, AUC0-72
Description: Assay for the Release of Active Metabolite in Huh-7 Cells. Huh-7 cells were plated in 1 mL culture medium (DMEM, containing glucose, L-glutamine and sodium pyruvate, 10% FBS, 100 IU/mL penicillin, 100 μg/mL streptomycin, 2 mM GlutaMAX, 1% MEM non-essential amino acids) at the concentration 0.8, 0.4 and 0.2 million cells per well on 6 well plates for 24, 48 and 72 hr treatment, respectively. Plated cells were incubated overnight at 37° C. in an incubator.
The following morning test compound was diluted to 20 μM from a stock solution in DMSO in fresh culture medium pre-warmed to 37° C. and 1 mL of the solution/well was added to cells. A final medium volume per well was 2.0 mL, test compound concentration in well was 10 μM and final DMSO concentration was 0.1%.
After 24, 48 or 72 hr, the medium was carefully removed and cell monolayers were washed twice with 2 mL ice-cold PBS per well. Following the last wash, all PBS was carefully removed and 1.0 mL of extraction solution (ice-cold 70% methanol) added. The plate was tightly covered with Parafilm, plastic plate cover and Parafilm again and an intracellular content was extracted at −20° C. for 24 hr.
After 24 hr extracts were transferred into polypropylene microfuge tubes and dry on a refrigerated centrivap concentrator. Dry residues were reconstituted in 250 μL of HPLC-grade water and centrifuged at 16,000×g for 10 min. Aliquots (100 μL each) of the supernatants were transferred into a 96 well plate and internal standard (4 ng/mL final concentration) was added as the internal standard (IS) for LC-MS/MS analysis.

[9] = target: T1, cathepsin A (CatA) (Homo sapiens, UniProt P10619); assay: CatA hydrolysis assay; assay type: in vitro ADME; conditions: for CatA hydrolysis @ 18 h: 100 μM compound, 37° C.
T1 sequence (P10619 29-326 limits assumed): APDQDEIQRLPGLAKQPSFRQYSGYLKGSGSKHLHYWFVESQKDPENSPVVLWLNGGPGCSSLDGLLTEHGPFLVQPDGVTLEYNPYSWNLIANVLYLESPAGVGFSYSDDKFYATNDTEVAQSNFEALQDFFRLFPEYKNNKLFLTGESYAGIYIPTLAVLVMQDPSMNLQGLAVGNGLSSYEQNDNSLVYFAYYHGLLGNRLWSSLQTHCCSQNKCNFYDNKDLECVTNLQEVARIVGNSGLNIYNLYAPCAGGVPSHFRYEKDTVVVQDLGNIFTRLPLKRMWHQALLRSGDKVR
T1 sequence (P10619 327-480 limits assumed): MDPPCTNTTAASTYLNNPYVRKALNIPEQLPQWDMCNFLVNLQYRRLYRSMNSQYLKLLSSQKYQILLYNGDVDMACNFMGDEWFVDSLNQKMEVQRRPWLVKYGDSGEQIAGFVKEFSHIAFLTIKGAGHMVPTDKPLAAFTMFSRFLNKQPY
Description: CatA, cathepsin L (CatL) and CES1 were purchased from R & D Systems (Minneapolis, Minn.). Prior to the enzymatic hydrolysis reactions, CatA was activated according to the manufacturer's instruction. Briefly, CatA (0.05 μg/μL) was incubated with CatL (0.005 μg/μL) for 30 min at 37° C. in 25 mM MES pH 6.0 containing 5 mM DTT. The reaction was stopped by addition of the CatL specific inhibitor E64 (10 μM).
The CatA assay was performed at 37° C. The reaction mixture contained 25 mM MES buffer pH 6.0, 100 mM NaCl, 4 mM DTT and 100 μM of the compound. The reaction was started by addition of the activated CatA enzyme to a final concentration of 0.005 μg/μL. One hundred-μL aliquots were taken after 0.5 min, 3 hrs and 18 hrs of incubation. Reactions were stopped by mixing the sample with an equal volume of ice-cold methanol, and were loaded on a HPLC for analysis.
(§2) Samples were analyzed by HPLC using 5 μC-18, 4.6×250 mm Phenomenex® Columbus column (Phenomenex USA, CA). The mobile phase consisted of buffer A (25 mM potassium phosphate with 5 mM tetrabutylammonium dihydrogen phosphate pH 6.3) and buffer B (100% methanol).

[10] = target: T2, carboxylesterase 1 (CES1) (Homo sapiens, UniProt P23141); assay: CES1 hydrolysis assay; conditions: 100 μM compound, 37° C.
T2 sequence (P23141 18-567): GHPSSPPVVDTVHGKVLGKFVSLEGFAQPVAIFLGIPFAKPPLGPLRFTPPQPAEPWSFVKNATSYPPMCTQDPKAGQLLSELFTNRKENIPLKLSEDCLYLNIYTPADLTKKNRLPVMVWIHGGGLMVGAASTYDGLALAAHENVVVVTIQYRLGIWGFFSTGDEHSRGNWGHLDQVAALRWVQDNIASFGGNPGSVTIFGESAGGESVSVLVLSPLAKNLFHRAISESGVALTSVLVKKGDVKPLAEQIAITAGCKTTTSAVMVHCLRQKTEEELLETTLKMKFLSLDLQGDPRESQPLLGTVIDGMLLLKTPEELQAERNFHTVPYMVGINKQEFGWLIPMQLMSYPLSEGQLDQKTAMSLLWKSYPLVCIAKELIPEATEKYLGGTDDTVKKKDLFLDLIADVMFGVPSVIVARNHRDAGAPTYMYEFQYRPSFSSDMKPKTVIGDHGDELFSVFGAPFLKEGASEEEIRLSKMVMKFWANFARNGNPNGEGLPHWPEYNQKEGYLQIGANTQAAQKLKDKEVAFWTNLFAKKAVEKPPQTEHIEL
Description: (§3) CES1 assay was performed at 37° C. in the reaction mixture containing 50 mM Tris/HCl buffer pH 7.5 and 100 μM of the compound. Reaction was started by addition of the CES1 to the final concentration 0.01 μg/mL. 100 μL aliquots were taken after 0.5 min, 3 hrs and 21 hrs of the incubation and the reaction was stopped by mixing with 100 μl of the ice-cold methanol prior to HPLC analysis.
as §2

[11] = Liver TP (Table 6); assay type: in vivo; conditions: liver triphosphate, species and dose not stated
[12] = target: T2, carboxylesterase 1 (CES1)
Description: as §3, §2

CCOc1nc(N)nc2c1ncn2[C@@H]1O[C@@H]2COP(=O)(NCCC(=O)OC(C)C)O[C@H]2[C@@]1(C)F (single isomer, unassigned) [Compound 2 Diastereomer 2]
EC50 ([1]; Zluc (Huh-7-derived) cells, HCV genotype 1b replicon, luciferase reporter, 72 hours, read-out: HCV Replicon EC50): 250 to 1000 nM
CC50 [2]: > 50 µM
Stability SIF [3]: 91%
Stability WB_Human (37° C.; 2 hr) [4]: 91%
Stability WB_Mouse (ice; 1 hr) [5]: 60%
Stability HLM (1 hr) [6]: 5.7%
FHH TP AUC (pmol · hr/mill cells) [7]: 336 pmol · hr/mill cells

CC(C)OC(=O)[C@H](C)N[P@](=O)(OC[C@H]1O[C@@H](n2ccc(=O)[nH]c2=O)[C@](C)(F)[C@@H]1O)Oc1ccccc1 (single isomer, unassigned) [GS-7977]
EC50 ([1]; Hepatitis C virus, Huh-7, Table 6, genotype 1b HCV replicon-bearing Huh-7 cells, read-out: EC50): 250 nM
Huh-7 pmol*hr/10^6 cells AUC0-72 [8]: 63555 pmol*hr/10^6 cells
CatA hydrolysis @ 18 h [9]: 100% @
CatA cleavage efficiency versus RP diastereoisomer ([9]; GS-7977 (SP) relative to PSI-7976 (RP)): 10 times
CES1 hydrolysis 3 h ([10]; 3 h): 12%/3 h;
CES1 hydrolysis 21 h ([10]; 21 h): 15%/21 h

CC(C)OC(=O)[C@H](C)N[P@@](=O)(OC[C@H]1O[C@@H](n2ccc(=O)[nH]c2=O)[C@](C)(F)[C@@H]1O)Oc1ccccc1 [PSI-7976]
EC50 ([1]; Table 6, genotype 1b HCV replicon-bearing Huh-7 cells, read-out: EC50): 2080 nM
Huh-7 pmol*hr/10^6 cells AUC0-72 [8]: 6527 pmol*hr/10^6 cells
CatA hydrolysis @ 18 h [9]: 10% @
Liver TP [11]: 310 pmol·h/g
Hydrolysis by CES1 (in words) [12]: preferentially hydrolyzed
